Assay results taken from the NIST ThermoML archive (doi:10.1021/je034107o).
± gives the expanded uncertainty stated by the source.

Settings: Liquid

vapor or sublimation pressure (498.15 K) [kPa]	vapor or sublimation pressure (523.15 K) [kPa]	vapor or sublimation pressure (553.15 K) [kPa]	vapor or sublimation pressure (583.15 K) [kPa]	vapor or sublimation pressure (613.15 K) [kPa]	vapor or sublimation pressure (638.15 K) [kPa]	vapor or sublimation pressure (653.15 K) [kPa]	Structure (SMILES)
681 ± 37	1027 ± 54	1601 ± 83	2387 ± 120	3451 ± 180	–	–	CCc1ccccc1 [ethylbenzene]
–	135 ± 8	245 ± 13	416 ± 22	668 ± 35	955 ± 49	1166 ± 60	c1ccc2ncccc2c1 [quinoline]
